Where a SMILES comes first, the peptide text is derived from it.
Test system: HMEC-1 cells
Assay: Formation of capillary pseudotubes on Matrigel
Assay type: cell-based, human
Details: 24 hours
Experimental: FIG. 17: In vitro anti-angiogenic activity of cyclopeptide YSNSG (SEQ ID NO: 3). A: microscope photographs of the network of capillary pseudotubes of HMEC-1 endothelial cells after 24 hours incubation in the absence of peptide (control; 1), with the cyclopeptide YSNSG (SEQ ID NO: 3) at a concentration of 10 or 20 μM (2 and 3 respectively) or with the linear heptapeptide CNYYSNS (SEQ ID NO: 5) (20 μM) (positive control; 4). B: quantification of number of pseudotubes in photographs in A;
The in vitro anti-angiogenic activity of the cyclopeptide YSNSG (SEQ ID NO: 3) was measured on the formation of capillary pseudotubes by endothelial HMEC-1 or HUVEC cells deposited on a Matrigel mat.
A solution of Matrigel (ECM gel: 10 mg/ml) was deposited in a sterile manner in 24-well plates (Nunclon) in an amount of 250 μl per well onto piled ice. Gel formation was obtained by incubating the plate at 37° C. for 30 min. HMEC-1 cells or HUVEC cells at sub-confluence were detached from their plastic culture support by adding trypsin/EDTA then taken up into suspension in the culture medium for endothelial cells and diluted to a concentration of 2×10^5 cells per ml. 100 μl volumes of this cell suspension were deposited on the gel surface. […] Quantification was carried out using image analysis software.

NC(=O)CC1NC(=O)C(CO)NC(=O)C(Cc2ccc(O)cc2)NC(=O)CNC(=O)C(CO)NC1=O (centres unmarked) [cyclopeptide YSNSG, cyclopeptide YSNSG (SEQ ID NO: 3)] (cyclo(GYSNS); configuration not given here)
reduces the formation of pseudotubes (10 μM): 40%
reduces the formation of pseudotubes (20 μM): up to 70%

From patent publication US20090305955A1, “Cyclopeptide with Anti-Cancer Activity Derived from Collagen Type IV” (priority 2006, published 2009)
